{
  "source": "ChEMBL document CHEMBL1201862",
  "about": "“PubChem BioAssay data set” (2004)",
  "assay_in_all_cases": "NCI tumour cell line growth inhibition, 48 h",
  "key": {"CAKI-1": {"tested_on": "CAKI-1"}, "RXF 393": {"tested_on": "RXF 393"}, "COLO 205": {"tested_on": "COLO 205"}, "A498": {"tested_on": "A498"}, "SN12C": {"tested_on": "SN12C"}, "786-0": {"tested_on": "786-0"}, "HT-29": {"tested_on": "HT-29"}, "BT-549": {"tested_on": "BT-549"}, "NCI-H226": {"tested_on": "NCI-H226"}, "UACC-257": {"tested_on": "UACC-257"}, "DU-145": {"tested_on": "DU-145"}, "HOP-92": {"tested_on": "HOP-92"}, "NCI-H23": {"tested_on": "NCI-H23"}, "SR": {"tested_on": "SR"}, "A549": {"tested_on": "A549"}, "SK-OV-3": {"tested_on": "SK-OV-3"}, "M14": {"tested_on": "M14"}, "EKVX": {"tested_on": "EKVX"}, "HOP-62": {"tested_on": "HOP-62"}, "Malme-3M": {"tested_on": "Malme-3M"}, "OVCAR-8": {"tested_on": "OVCAR-8"}, "ACHN": {"tested_on": "ACHN"}, "HL-60": {"tested_on": "HL-60"}, "PC-3": {"tested_on": "PC-3"}, "NCI-H460": {"tested_on": "NCI-H460"}, "OVCAR-3": {"tested_on": "OVCAR-3"}, "RPMI-8226": {"tested_on": "RPMI-8226"}, "HCC 2998": {"tested_on": "HCC 2998"}, "SK-MEL-2": {"tested_on": "SK-MEL-2"}, "NCI/ADR-RES": {"tested_on": "NCI/ADR-RES"}, "SW-620": {"tested_on": "SW-620"}, "SF-539": {"tested_on": "SF-539"}, "U-251": {"tested_on": "U-251"}, "T47D": {"tested_on": "T47D"}, "KM12": {"tested_on": "KM12"}, "MDA-N": {"tested_on": "MDA-N"}, "CCRF-CEM": {"tested_on": "CCRF-CEM"}, "MOLT-4": {"tested_on": "MOLT-4"}, "MCF7": {"tested_on": "MCF7"}, "SK-MEL-28": {"tested_on": "SK-MEL-28"}, "SNB-75": {"tested_on": "SNB-75"}, "HCT-116": {"tested_on": "HCT-116"}, "SNB-19": {"tested_on": "SNB-19"}, "MDA-MB-231": {"tested_on": "MDA-MB-231"}, "SF-268": {"tested_on": "SF-268"}, "K562": {"tested_on": "K562"}, "UO-31": {"tested_on": "UO-31"}, "UACC-62": {"tested_on": "UACC-62"}, "OVCAR-4": {"tested_on": "OVCAR-4"}, "HCT-15": {"tested_on": "HCT-15"}, "MDA-MB-435": {"tested_on": "MDA-MB-435"}, "SF-295": {"tested_on": "SF-295"}, "OVCAR-5": {"tested_on": "OVCAR-5"}, "NCI-H522": {"tested_on": "NCI-H522"}},
  "note": "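Values below derive from 48-hour exposures of cells grown in 96-well plates, with endpoints linearly interpolated between the two concentrations bracketing the appropriate inhibition level. GI50 is the concentration that inhibits growth by half.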 Activity calls are given as the source filed them. Rule as the data show it: active = GI50 up to about 1.1 µM and inactive = higher.",
  "data": [
    {"smiles": "Cc1nn(C)c2nc3ccc(Cl)cc3c(-c3ccccc3)c12", "values": [
      {"measurement": "GI50", "setting": "CAKI-1", "result": "> 100 µM (inactive)"},
      {"measurement": "GI50", "setting": "RXF 393", "result": "> 100 µM (inactive)"},
      {"measurement": "GI50", "setting": "COLO 205", "result": "> 100 µM (inactive)"},
      {"measurement": "GI50", "setting": "A498", "result": "> 100 µM (inactive)"},
      {"measurement": "GI50", "setting": "SN12C", "result": "> 100 µM (inactive)"},
      {"measurement": "GI50", "setting": "786-0", "result": "> 100 µM (inactive)"},
      {"measurement": "GI50", "setting": "HT-29", "result": "> 100 µM (inactive)"},
      {"measurement": "GI50", "setting": "BT-549", "result": "> 100 µM (inactive)"},
      {"measurement": "GI50", "setting": "NCI-H226", "result": "> 100 µM (inactive)"},
      {"measurement": "GI50", "setting": "UACC-257", "result": "> 100 µM (inactive)"},
      {"measurement": "GI50", "setting": "DU-145", "result": "> 100 µM (inactive)"},
      {"measurement": "GI50", "setting": "HOP-92", "result": "> 100 µM (inactive)"},
      {"measurement": "GI50", "setting": "NCI-H23", "result": "> 100 µM (inactive)"},
      {"measurement": "GI50", "setting": "SR", "result": "> 100 µM (inactive)"},
      {"measurement": "GI50", "setting": "A549", "result": "79.6 µM (inactive)"},
      {"measurement": "GI50", "setting": "SK-OV-3", "result": "> 100 µM (inactive)"},
      {"measurement": "GI50", "setting": "M14", "result": "> 100 µM (inactive)"},
      {"measurement": "GI50", "setting": "EKVX", "result": "> 100 µM (inactive)"},
      {"measurement": "GI50", "setting": "HOP-62", "result": "> 100 µM (inactive)"},
      {"measurement": "GI50", "setting": "Malme-3M", "result": "> 100 µM (inactive)"},
      {"measurement": "GI50", "setting": "OVCAR-8", "result": "> 100 µM (inactive)"},
      {"measurement": "GI50", "setting": "ACHN", "result": "> 100 µM (inactive)"},
      {"measurement": "GI50", "setting": "HL-60", "result": "> 100 µM (inactive)"},
      {"measurement": "GI50", "setting": "PC-3", "result": "> 100 µM (inactive)"},
      {"measurement": "GI50", "setting": "NCI-H460", "result": "> 100 µM (inactive)"},
      {"measurement": "GI50", "setting": "OVCAR-3", "result": "> 100 µM (inactive)"},
      {"measurement": "GI50", "setting": "RPMI-8226", "result": "> 100 µM (inactive)"},
      {"measurement": "GI50", "setting": "HCC 2998", "result": "> 100 µM (inactive)"},
      {"measurement": "GI50", "setting": "SK-MEL-2", "result": "> 100 µM (inactive)"},
      {"measurement": "GI50", "setting": "NCI/ADR-RES", "result": "> 100 µM (inactive)"},
      {"measurement": "GI50", "setting": "SW-620", "result": "> 100 µM (inactive)"},
      {"measurement": "GI50", "setting": "SF-539", "result": "> 100 µM (inactive)"},
      {"measurement": "GI50", "setting": "U-251", "result": "> 100 µM (inactive)"},
      {"measurement": "GI50", "setting": "T47D", "result": "> 100 µM (inactive)"},
      {"measurement": "GI50", "setting": "KM12", "result": "> 100 µM (inactive)"},
      {"measurement": "GI50", "setting": "MDA-N", "result": "> 100 µM (inactive)"},
      {"measurement": "GI50", "setting": "CCRF-CEM", "result": "> 100 µM (inactive)"},
      {"measurement": "GI50", "setting": "MOLT-4", "result": "> 100 µM (inactive)"},
      {"measurement": "GI50", "setting": "MCF7", "result": "> 100 µM (inactive)"},
      {"measurement": "GI50", "setting": "SK-MEL-28", "result": "> 100 µM (inactive)"},
      {"measurement": "GI50", "setting": "SNB-75", "result": "> 100 µM (inactive)"},
      {"measurement": "GI50", "setting": "HCT-116", "result": "> 100 µM (inactive)"},
      {"measurement": "GI50", "setting": "SNB-19", "result": "> 100 µM (inactive)"},
      {"measurement": "GI50", "setting": "MDA-MB-231", "result": "> 100 µM (inactive)"},
      {"measurement": "GI50", "setting": "SF-268", "result": "> 100 µM (inactive)"},
      {"measurement": "GI50", "setting": "K562", "result": "> 100 µM (inactive)"},
      {"measurement": "GI50", "setting": "UO-31", "result": "> 100 µM (inactive)"},
      {"measurement": "GI50", "setting": "UACC-62", "result": "> 100 µM (inactive)"},
      {"measurement": "GI50", "setting": "OVCAR-4", "result": "> 100 µM (inactive)"},
      {"measurement": "GI50", "setting": "HCT-15", "result": "> 100", "unit": "µM"},
      {"measurement": "GI50", "setting": "MDA-MB-435", "result": "> 100 µM (inactive)"},
      {"measurement": "GI50", "setting": "SF-295", "result": "> 100 µM (inactive)"},
      {"measurement": "GI50", "setting": "OVCAR-5", "result": "95.3 µM (inactive)"},
      {"measurement": "GI50", "setting": "NCI-H522", "result": "> 100 µM (inactive)"}
    ]}
  ]
}
